Columns and labels:
[1] = Bioavailability studies (iv and oral dosing, plasma LC-MS/MS); type: in vivo, mice (C57BL/6); settings: male, mouse, C57BL/6 mice, single oral dose of 10 mg/kg, single intravenous dose of 1 mg/kg
Procedure: Male mice (C57BL/6 or CD1) or Wistar rats of 8-9 weeks old were used. For each test compound, two groups of 3 animals each were used. One group was administered a single intravenous dose of 1 mg/kg (vehicle 100% DMSO) through the tail vein and the other group was administered a single oral dose of 10 mg/kg through gavage needle. The group that was administered an oral dose was fasted overnight. Blood samples were collected after 0.083, 0.25, 0.5, 1, 2, 4, 6, 8 and 24 hours following intravenous administration, and after 0.25, 0.5, 1, 2, 4, 6, 8 and 24 hours following oral administration. Blood samples were taken from saphenous vein. 0.2% EDTA was used as the anticoagulant. The samples were analyzed by a discovery grade bioanalytical method developed for the estimation of test compound in plasma, using an LC-MS/MS system.

[2] = Bidirectional permeability assay (Caco-2 cells); type: in vitro ADME; settings: human, Caco-2, pH 7.4, 10 μM in FaSSIF buffer, 120 minutes at 37° C.; for Papp A→B at 120 min, 10 μM: absorptive direction (A2B); for Papp B→A at 120 min, 10 μM: secretory direction (B2A)
Procedure: Caco-2 cells (Evotec) were seeded at a density of 70,000 cells/well in Millicell® 24-well cell culture insert plates and maintained in an incubator (37° C., 5% CO2, 95% RH) for 21 days with media change on alternate days.
Stock solutions (10 mM) of the test compounds, atenolol (low permeability marker), propranolol (high permeability marker) and digoxin (substrate for P-gp transport pathway) were prepared in dimethylsulfoxide (DMSO). An intermediate stock solution (1 mM) was prepared by diluting 10 μL of 10 mM master stock solution with 90 μL of neat DMSO. A working stock solution (10 μM) was prepared by diluting 50 μL of 1 mM with 4950 μL of FaSSIF buffer. Post addition of compounds to the FaSSIF, samples were subjected to sonication for 2 hours, and centrifuged at 4000 RPM for 30 minutes at 37° C. The 4 mL of resultant supernatant was directly used in the assay. The final DMSO concentration in the transport experiments was 1%.
On the day of assay, Caco-2 monolayers were washed twice with transport buffer (HBSS, pH 7.4) and pre-incubated for 30 min (37° C., 5% CO2, 95% RH) in an incubator. The electrical resistance of the monolayers was measured with a Millicell®-ERS system. Monolayers with trans-epithelial electrical resistance (TEER) values greater than 350 ohm·cm^2 were selected for the assay.
The assay was conducted in absorptive direction (A2B) and secretory (B2A) directions. Transport experiments were initiated by addition of transport assay buffer (FaSSIF buffer prepared in HBSS) consisting of compounds to the donor compartment (apical chamber A-B; basolateral chamber B-A) in duplicate (n=2) wells. Drug free HBSS buffer (pH 7.4) containing 1% bovine serum albumin (BSA) was introduced to the receiver (A-B-basolateral; B-A-Apical) compartments. The volumes of apical and basolateral compartments were 0.4 and 0.8 mL, respectively. After adding dosing solution, plates were incubated in an incubator for 120 minutes at 37° C. After 120 minutes, donor and receiver samples were collected and matrix matched (1:1, 30 μL study sample+30 μL blank buffer) with the opposite buffer. Dosing samples matrix matched (1:1, 30 μL study sample+30 μL blank buffer) with the opposite buffer. Samples were processed by adding acetonitrile containing internal standard (60 μL study sample+200 μL acetonitrile containing internal standard-Tolbutamide, 500 ng/mL). Samples were vortexed and centrifuged at 4000 rpm for 10 minutes. The obtained supernatant (100 μL) was diluted with 100 μL of water and transferred to fresh 96 well plates. The concentration of compounds in the samples was analyzed by liquid chromatography tandem mass spectrometry (LC-MS/MS) method using discovery grade bio-analytical method, as applicable.
The mean apparent permeability (Papp×10^−6 cm/sec) of the test compounds, atenolol, propranolol and digoxin were calculated as follows:
where dq/dt=rate of transport (rate of transport of compound in the receiver compartment), C0=initial concentration in the donor compartment, A=surface area of the effective filter membrane.

Human IBAT = target: T1, Human IBAT (Homo sapiens, UniProt Q12908); test: IBAT (h) assay: 3H-taurocholic acid uptake in human IBAT-overexpressing cells; type: cell-based; settings: 0.25 μM 3H-taurocholic acid and 5 μM cold taurocholic acid, 20 minutes, read-out: hIBAT IC50
T1 construct: expressed in transfected cells; cells kept under Puromycin selection
T1 sequence (Q12908 1-348): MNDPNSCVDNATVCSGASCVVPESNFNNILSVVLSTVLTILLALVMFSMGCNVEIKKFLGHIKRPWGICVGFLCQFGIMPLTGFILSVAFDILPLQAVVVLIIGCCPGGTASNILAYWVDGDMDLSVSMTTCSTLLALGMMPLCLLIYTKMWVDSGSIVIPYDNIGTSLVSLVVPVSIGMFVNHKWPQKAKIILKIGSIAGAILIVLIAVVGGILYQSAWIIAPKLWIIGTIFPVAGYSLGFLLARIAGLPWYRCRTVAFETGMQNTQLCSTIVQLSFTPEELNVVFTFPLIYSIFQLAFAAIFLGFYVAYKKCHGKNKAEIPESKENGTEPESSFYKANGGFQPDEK
Procedure: 10,000 cells (Human or Mouse IBAT-overexpressing cells) were seeded in 96-wells plate (Corning CLS3809) in 200 μL MEM-alpha medium (Gibco 12571-063) supplemented with 10% FBS (Gibco 10438026) containing Puromycin (Gibco A1113803) (10 μg/mL) and incubated at 37° C. in 5% CO2 for 48 hours. After incubation, media was decanted from the wells and cells were washed two times with 300 μL of basal MEM-alpha medium (FBS-free). After decanting basal MEM-alpha medium each time, plates were tapped against paper towel to ensure maximum removal of residual media. Test inhibitor dilutions (highest test concentration being 10 μM, 3-fold serial dilution, 10 points) prepared in DMSO (Sigma D2650) were added in incubation mix (maintaining 0.2% final DMSO concentration) containing 0.25 μM 3H-taurocholic acid (ARC ART-1368) and 5 μM of cold taurocholic acid (Sigma T4009). 50 μL of incubation mix containing test inhibitors was then added to the wells (in duplicate) and the plates were incubated for 20 minutes in a CO2 incubator at 37° C. After incubation, the reaction was stopped by keeping the plates on ice water mix for 2-3 minutes and then the incubation mix was aspirated completely from the wells. The wells were washed two times with 250 μL of chilled unlabelled 1 mM taurocholic acid dissolved in HEPES (Gibco 15630080)-buffered (10 mM) HBSS (Gibco 14175079) (pH 7.4). The plates were tapped against a paper towel after every wash to ensure maximum removal of blocking buffer.
(§1) 100 μL of MicroScint-20 (PerkinElmer 6013621) was added to the wells and kept overnight at room temperature before reading the plates in TopCount NXT™ Microplate Scintillation and Luminescence Counter from PerkinElmer under 3H Test protocol (set at 120 seconds reading time per well).
(§2) All test compounds were provided in powder form at room temperature. 10 mM DMSO stocks of the test compounds were prepared, aliquoted and stored at −20° C. From the 10 mM DMSO stock of the compounds, a 3-fold serial dilution in DMSO was prepared to get a total of 10 dilutions of the test compounds. 0.5 μL of this dilution in DMSO was added to 250 μL of FBS-free basal media containing 3H-taurocholic acid and cold taurocholic acid to prepare the incubation mixture.

Human LBAT = target: T2, Human LBAT (Homo sapiens, UniProt Q14973); test: LBAT (h) assay: 3H-taurocholic acid uptake in human LBAT-overexpressing cells; type: cell-based; settings: 0.3 μM 3H-taurocholic acid and 7.5 μM cold taurocholic acid, 20 minutes, read-out: hLBAT IC50
T2 construct: expressed in transfected cells; cells kept under Geneticin selection
T2 sequence (Q14973 1-349): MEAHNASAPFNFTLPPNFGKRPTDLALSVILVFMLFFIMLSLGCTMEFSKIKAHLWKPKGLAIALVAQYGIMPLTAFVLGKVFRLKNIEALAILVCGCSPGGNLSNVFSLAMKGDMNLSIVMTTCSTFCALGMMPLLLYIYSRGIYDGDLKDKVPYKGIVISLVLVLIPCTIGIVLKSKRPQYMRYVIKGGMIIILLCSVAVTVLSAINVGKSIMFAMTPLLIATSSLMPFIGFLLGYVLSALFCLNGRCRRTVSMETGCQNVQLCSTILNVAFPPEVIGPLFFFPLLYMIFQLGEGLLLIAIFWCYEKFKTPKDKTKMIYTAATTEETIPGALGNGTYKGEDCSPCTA
Procedure: 20,000 cells (Human or Mouse LBAT-overexpressing cells) were seeded in 96-wells plate (Corning CLS3809) in 100 μL MEM-alpha medium (Gibco 12571-063) supplemented with 10% FBS (Gibco 10438026) containing Geneticin (Gibco 10131-027) (1 mg/mL) and incubated at 37° C. in 5% CO2 for 24 hours. After incubation, media was decanted from the wells and cells were washed two times with 300 μL of basal MEM-alpha medium (FBS-free). After decanting basal MEM-alpha medium each time, plates were tapped against paper towel to ensure maximum removal of residual media. For human LBAT, incubation mix was prepared by adding test inhibitor dilutions (3-fold serial dilution in DMSO (Sigma D2650), 10 points) in MEM-alpha (without FBS) containing 0.3 μM 3H-taurocholic acid (ARC ART-1368) and 7.5 μM cold taurocholic acid (Sigma T4009) (maintaining 0.2% final DMSO concentration). For mouse LBAT, incubation mix was prepared by adding test inhibitor dilutions (3-fold serial dilution in DMSO, 10 points) in MEM-alpha (without FBS) containing 0.3 μM 3H-taurocholic acid and 25 μM cold taurocholic acid maintaining 0.2% final DMSO concentration).
50 μL of incubation mix containing test inhibitors was then added to the wells (in duplicate) and the plates were incubated for 20 minutes in a CO2 incubator at 37° C. After incubation, the reaction was stopped by keeping the plates on ice water mix for 2-3 minutes and then the incubation mix was aspirated completely from the wells. The wells were washed two times with 250 μL of chilled unlabelled 1 mM taurocholic acid dissolved in HEPES (Gibco 15630080)-buffered (10 mM) HBSS (Gibco 14175079) (pH 7.4). The plates were tapped against a paper towel after every wash to ensure maximum removal of blocking buffer.
as §1, with “well, with normal plate orientation).” for “well).”
as §2

| Structure (SMILES) | bioavailability [1] | Papp A→B at 120 min, 10 μM [2] | Papp B→A at 120 min, 10 μM [2] | IC50 (Human IBAT) | IC50 (Human LBAT) |
| --- | --- | --- | --- | --- | --- |
| CCCCC1(CC)CN(c2ccccc2)c2cc(N(C)C)c(OCC(=O)O)cc2S(=O)(=O)C1 (single isomer, unassigned) [Example 8, 2-((3-butyl-7-(dimethylamino)-3-ethyl-1,1-dioxido-5-phenyl-2,3,4,5-tetrahydro-1,5-benzothiazepin-8-yl)oxy)acetic Acid] | 26% | 7.9 ×10⁻⁶ cm/s | 23.7 ×10⁻⁶ cm/s | 9 nM |  |
| CCCCC1(CC)CN(c2ccc(O)cc2)c2cc(SC)c(OCC(=O)O)cc2S(=O)(=O)C1 (single isomer, unassigned) [Example 20, 2-((3-butyl-3-ethyl-5-(4-hydroxyphenyl)-7-(methylthio)-1,1-dioxido-2,3,4,5-tetrahydro-1,5-benzothiazepin-8-yl)oxy)acetic Acid] |  |  |  | 14 nM | 751 nM |
| CCCCC1(CCCC)CN(c2ccc(C#N)cc2)c2cc(SC)c(OCC(=O)O)cc2S(=O)(=O)C1 [Example 5, 2-((3,3-dibutyl-5-(4-cyanophenyl)-7-(methylthio)-1,1-dioxido-2,3,4,5-tetrahydro-1,5-benzothiazepin-8-yl)oxy)acetic Acid] | 6% | 5.5 ×10⁻⁶ cm/s | 14.5 ×10⁻⁶ cm/s | 58 nM |  |
| CCCCC1(CCCC)CN(c2ccc(C(F)(F)F)cc2)c2cc(SC)c(OCC(=O)O)cc2S(=O)(=O)C1 [Example 6, 2-((3,3-dibutyl-7-(methylthio)-1,1-dioxido-5-(4-(trifluoromethyl)phenyl)-2,3,4,5-tetrahydro-1,5-benzothiazepin-8-yl)oxy)acetic Acid] |  |  |  | 59 nM | 3610 nM |
| CCCCC1(CCCC)CN(c2ccccc2)c2cc(F)c(OCC(=O)O)cc2S(=O)(=O)C1 [Example 10, 2-((3,3-dibutyl-7-fluoro-1,1-dioxido-5-phenyl-2,3,4,5-tetrahydro-1,5-benzothiazepin-8-yl)oxy)acetic Acid] |  |  |  | 179 nM | 1070 nM |
| CCCCC1(CCCC)CN(c2ccccc2)c2cc(C#N)c(OCC(=O)O)cc2S(=O)(=O)C1 [Example 11, 2-((3,3-dibutyl-7-cyano-1,1-dioxido-5-phenyl-2,3,4,5-tetrahydro-1,5-benzothiazepin-8-yl)oxy)acetic Acid] |  |  |  | 281 nM | 2530 nM |
| CCCCC1(CC)CN(c2ccccc2)c2cc(F)c(OCC(=O)O)cc2S(=O)(=O)C1 (centres unmarked) [Example 12, 2-((3-butyl-3-ethyl-7-fluoro-1,1-dioxido-5-phenyl-2,3,4,5-tetrahydro-1,5-benzothiazepin-8-yl)oxy)acetic Acid] |  |  |  | 350 nM | 473 nM |
| CCCCC1(CCCC)CN(c2ccccc2)c2cc(Cl)c(OCC(=O)O)cc2S(=O)(=O)C1 [Example 13, 2-((3,3-dibutyl-7-chloro-1,1-dioxido-5-phenyl-2,3,4,5-tetrahydro-1,5-benzothiazepin-8-yl)oxy)acetic Acid] |  |  |  | 268 nM | 1620 nM |

From patent publication US11014898B1, “Benzothiazepine compounds and their use as bile acid modulators” (Albireo AB, priority 2020, dated 2021)
